# Results reported in PMC7729733, “Biological Properties of New Chiral 2-Methyl-5,6,7,8-tetrahydroquinolin-8-amine-based Compounds” (Molecules, 2020).
# Where two headings read alike, the source gives them in different places.
# Key:
# [1] = tested on: HT-29 (colorectal adenocarcinoma); test: Cell growth assay (Trypan blue), HT-29 cells; assay type: cell-based, human; settings: Homo sapiens, HT-29, pure enantiomers, 72 h
# Description: (§1) A2780 (human ovarian carcinoma) and HT-29 (human colorectal adenocarcinoma) were grown in RPMI 1640 (Sigma Chemical Co., St. Louis, MO, USA), and MSTO-211H (human biphasic mesothelioma) were grown in RPMI 1640 (Sigma Chemical Co.) supplemented with 2.38 g/L Hepes, 0.11 g/L pyruvate sodium, and 2.5 g/L glucose. Then, 1.5 g/L NaHCO3, 10% heat-inactivated fetal calf serum (Biowest), 100 U/mL penicillin, 100 μg/mL streptomycin, and 0.25 μg/mL amphotericin B (Sigma Chemical Co.) were added to the media. The cells were cultured at 37 °C in a moist atmosphere of 5% carbon dioxide in air. Cells (2.5–3 × 10^4) were seeded into each well of a 24-well cell culture plate. After incubation for 24 h, various concentrations of the test agents were added to the complete medium and incubated for a further 72 h. A Trypan blue assay was performed to determine cell viability. Cytotoxicity data were expressed as IC50 values, i.e., the concentration of the test compound able to induce a 50% reduction in cell number compared with control cultures.
# [2] = tested on: A2780 (ovarian carcinoma); test: Cell growth assay (Trypan blue), A2780 cells; assay type: cell-based, human
# Description: as §1
# [3] = tested on: MSTO-211H (biphasic mesothelioma); test: Cell growth assay (Trypan blue), MSTO-211H cells; assay type: cell-based, human; settings: pure enantiomers
# Description: as §1
# A2780 cells [4] = test: Cell cycle analysis (propidium iodide, flow cytometry); assay type: cell-based, human; settings: 28 h, mean ± SD of four experiments
# Description: A2780 cells ([…]) were seeded into a 6-well culture plate in complete medium. After incubation for 24 h, the test compound was added at the indicated concentration and cells were incubated for a further 28 h. After treatment, cells were harvested, centrifugated, and 300–500 × 10^3 cells were fixed and permeabilized with 70% ice-cold ethanol at 4 °C for 20 min. The cells were washed twice with PBS and incubated in a staining solution containing 0.1 mg/mL RNAse and 36 μg/mL propidium iodide for 20 min at room temperature. The DNA content analysis was performed using a FACSCanto II flow cytometer (Becton-Dickinson, Mountain View, CA, USA).
# A2780 cells [5] = test: Measurement of reactive oxygen species (H2DCF-DA); assay type: cell-based, human; settings: 50 μM, 120 min of incubation
# Description: The intracellular production of ROS was determined by using the cell-permeable fluorogenic probe 2′,7′-dichlorodihydrofluorescein diacetate (H2DCF-DA). A2780 cells (10^4) were seeded in 96-well plates and incubated for 24 h. The medium was then removed, and the cells washed with PBS and incubated with 10 μM H2DCF-DA in the dark for 20 min at 37 °C and 5% carbon dioxide in air. Afterwards, the medium was removed, cells washed with PBS, and PBS/10 mM glucose containing the test compound was added. ROS production was estimated by monitoring the fluorescence increase of the probe (λex = 480, λem = 530) using a PerkinElmer VICTOR X3 plate reader.
# [6] = tested on: supercoiled plasmid pBR322 DNA; test: Unwinding assay, electrophoretic mobility of supercoiled DNA; settings: 3 h at 37 °C
# Description: Figure 2SI. Effect of compound (R)-5a on the electrophoretic mobility of supercoiled DNA.
# Supercoiled plasmid pBR322 DNA was incubated in the absence or in the presence of (R)-5a at indicated concentrations. The effect of solvent alone on DNA was also assayed (solvent).
# Supercoiled pBR322 plasmid DNA (0.15 µg, Fermentas Life Sciences) was incubated in TAE buffer (0.04 M Tris, 0.02 M Acetic Acid, EDTA 1 mM, pH=8) with test compound at indicated concentrations for 3 h at 37 °C in 10 μL final volume. 3 μL of loading buffer (0.125% bromophenol blue, 0.125% xylene cyanol and 50% glycerol) was added to each sample and DNA was separated by electrophoresis on a 0.8% agarose gel at room temperature. The gels were stained with ethidium bromide (1 μg/mL) in TAE buffer, transilluminated by UV light, and the fluorescence emission was visualized by a CCD camera coupled to a Bio-Rad Gel Doc XR apparatus.
# (§2) (1 picture or pasted object on this page, not shown here)
# human topoisomerase I = target: T1, human topoisomerase I (Homo sapiens, UniProt P11387); test: Topoisomerase I relaxation assay; assay type: biochemical; settings: supercoiled pBR322; 60 min at 37 °C
# T1 construct: purchased TopoGEN
# T1 sequence (P11387 1-765): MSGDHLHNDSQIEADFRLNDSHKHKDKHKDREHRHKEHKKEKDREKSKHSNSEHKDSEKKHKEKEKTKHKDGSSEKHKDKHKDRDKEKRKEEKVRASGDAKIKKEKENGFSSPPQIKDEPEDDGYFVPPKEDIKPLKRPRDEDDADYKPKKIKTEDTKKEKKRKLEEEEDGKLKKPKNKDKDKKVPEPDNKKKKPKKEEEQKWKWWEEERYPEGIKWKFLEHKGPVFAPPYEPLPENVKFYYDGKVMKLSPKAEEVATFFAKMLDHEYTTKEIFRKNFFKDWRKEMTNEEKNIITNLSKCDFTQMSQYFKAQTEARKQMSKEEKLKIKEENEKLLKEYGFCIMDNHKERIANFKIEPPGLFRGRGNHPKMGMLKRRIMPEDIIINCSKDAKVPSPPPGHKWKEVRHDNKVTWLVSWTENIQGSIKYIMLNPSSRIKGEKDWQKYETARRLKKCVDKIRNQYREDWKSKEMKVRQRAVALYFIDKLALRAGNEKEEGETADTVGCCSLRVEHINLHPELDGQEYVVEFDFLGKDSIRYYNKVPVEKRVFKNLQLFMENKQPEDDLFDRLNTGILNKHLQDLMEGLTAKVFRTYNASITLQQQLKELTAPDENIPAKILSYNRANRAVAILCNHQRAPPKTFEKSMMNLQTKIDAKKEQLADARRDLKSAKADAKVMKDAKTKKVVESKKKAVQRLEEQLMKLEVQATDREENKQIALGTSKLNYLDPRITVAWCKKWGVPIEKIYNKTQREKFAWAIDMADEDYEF
# Description: (§3) Figure 3SI. Effect of compound (R)-5a on the relaxation of supercoiled pBR322 DNA by human recombinant topoisomerase I or II. Supercoiled plasmid pBR322 DNA (DNA) was incubated with topo I (topo I) or II in the absence (topo II) and in the presence of (R)-5a at indicated […]
# (§4) Topoisomerase I and II relaxation assay
# (§5) Supercoiled pBR322 plasmid DNA (20 ng, Fermentas Life Sciences) and 5U topoisomerase I (human topoisomerase I, TopoGEN) or alternatively, supercoiled pBR322 plasmid DNA (0.25 μg) and 1U topoisomerase II (human topoisomerase II alpha, Inspiralis) were incubated in the presence of test compound as indicated for 60 min at 37 °C in 20 µL reaction buffer.Reactions were stopped by adding 4 μL stop buffer (5% sodium dodecyl sulfate, 0.125% b romophenol blue, and 30% glycerol), 50 μg/mL proteinase K (Sigma) and incubating for a further 30 min at 37 °C.
# (§6) The samples were separated by electrophoresis on a 1% agarose gel at room temperature. The gels were stained with ethidium bromide 1 μg/mL in TAE buffer (0.04 M Tris-acetate and 0.001 M EDTA), transilluminated by UV light, and fluorescence emission was visualized by a CCD camera coupled to a Bio-Rad Gel Doc XR apparatus.
# as §2
# [7] = target: T2, human topoisomerase II alpha (Homo sapiens, UniProt P11388); test: Topoisomerase II relaxation assay; assay type: biochemical; settings: supercoiled pBR322; 60 min at 37 °C
# T2 construct: purchased Inspiralis
# Description: as §3, §4, §5, §6, §2
# [8] = tested on: CEM (human T-lymphocyte cells); settings: read-out: IC50 CEM; reference compound; cited from earlier work
# [9] = tested on: HeLa (human cervix carcinoma cells); settings: read-out: IC50 HeLa; reference compound; cited from earlier work
# [10] = tested on: HMEC-1 (human dermal microvascular endothelial cells); settings: read-out: IC50 HMEC-1; reference compound; cited from earlier work
# HCT-116 = tested on: HCT-116; set-up: method as in PMID 30253345; settings: cytotoxicity; cited from earlier work
# [11] = tested on: HT-29 (colorectal adenocarcinoma); settings: reference compound; cited from earlier work
# [12] = tested on: A2780 (ovarian carcinoma); settings: reference compound; cited from earlier work
# [13] = tested on: MSTO-211H (biphasic mesothelioma); settings: reference compound; cited from earlier work
# T2 sequence (P11388 whole entry): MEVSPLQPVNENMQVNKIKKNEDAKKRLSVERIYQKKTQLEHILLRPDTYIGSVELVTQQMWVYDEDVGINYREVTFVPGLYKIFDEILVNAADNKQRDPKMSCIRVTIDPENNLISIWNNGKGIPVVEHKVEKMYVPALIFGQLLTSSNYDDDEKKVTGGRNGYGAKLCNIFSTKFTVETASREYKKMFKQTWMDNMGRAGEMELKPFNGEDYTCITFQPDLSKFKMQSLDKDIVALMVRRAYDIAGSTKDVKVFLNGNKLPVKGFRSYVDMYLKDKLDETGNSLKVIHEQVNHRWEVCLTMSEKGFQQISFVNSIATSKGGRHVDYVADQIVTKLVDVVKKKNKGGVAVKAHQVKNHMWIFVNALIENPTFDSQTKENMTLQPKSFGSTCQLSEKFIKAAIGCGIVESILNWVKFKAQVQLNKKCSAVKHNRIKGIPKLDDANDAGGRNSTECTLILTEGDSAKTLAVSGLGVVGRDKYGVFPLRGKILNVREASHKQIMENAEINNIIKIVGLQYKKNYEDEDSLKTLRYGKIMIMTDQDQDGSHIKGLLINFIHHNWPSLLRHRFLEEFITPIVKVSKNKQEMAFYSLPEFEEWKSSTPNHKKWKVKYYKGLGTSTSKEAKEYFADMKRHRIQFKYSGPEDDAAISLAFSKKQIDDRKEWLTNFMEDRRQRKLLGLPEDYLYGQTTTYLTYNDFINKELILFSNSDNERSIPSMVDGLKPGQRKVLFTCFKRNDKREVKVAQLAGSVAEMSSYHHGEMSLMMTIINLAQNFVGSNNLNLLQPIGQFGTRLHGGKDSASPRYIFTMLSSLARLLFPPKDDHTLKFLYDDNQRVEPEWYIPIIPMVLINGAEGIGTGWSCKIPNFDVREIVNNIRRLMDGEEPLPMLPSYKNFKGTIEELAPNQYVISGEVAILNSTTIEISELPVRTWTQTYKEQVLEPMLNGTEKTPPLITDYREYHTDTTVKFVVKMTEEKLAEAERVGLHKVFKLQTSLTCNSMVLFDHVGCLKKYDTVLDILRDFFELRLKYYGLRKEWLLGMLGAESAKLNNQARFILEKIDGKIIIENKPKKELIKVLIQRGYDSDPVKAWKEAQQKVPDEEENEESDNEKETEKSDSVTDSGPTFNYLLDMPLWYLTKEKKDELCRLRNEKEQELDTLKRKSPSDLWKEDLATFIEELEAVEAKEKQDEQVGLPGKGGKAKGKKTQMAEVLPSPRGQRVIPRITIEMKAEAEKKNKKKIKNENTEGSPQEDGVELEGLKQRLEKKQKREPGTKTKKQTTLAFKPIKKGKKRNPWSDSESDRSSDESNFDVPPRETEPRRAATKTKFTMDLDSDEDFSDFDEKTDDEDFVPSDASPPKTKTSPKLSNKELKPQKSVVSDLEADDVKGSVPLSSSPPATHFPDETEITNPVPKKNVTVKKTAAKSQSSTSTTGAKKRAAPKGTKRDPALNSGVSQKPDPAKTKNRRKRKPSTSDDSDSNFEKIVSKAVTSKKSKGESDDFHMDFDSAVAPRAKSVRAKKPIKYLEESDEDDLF
smiles,measurement,setting,value
"Cc1ccc2c(n1)[C@H](/N=C/c1ncc[nH]1)CCC2 [(R)-5a, (E)-1-(1H-imidazol-2-yl)-N-(2-methyl-5,6,7,8-tetrahydroquinolin-8-yl)methanimine]",IC50,[1],> 20000 nM
same,inhibitory effect on the A2780 cell line with respect to its counterpart (S)-5a,[2]; R enantiomer versus S enantiomer,~3 fold
same,IC50,"[2]; pure enantiomers, 72 h, Trypan blue",5400 ± 1300 nM
same,IC50,"[3]; Homo sapiens, MSTO-211H, 72 h, Trypan blue",15100 ± 1500 nM
same,cytotoxic effect on MSTO-211H (in words),[3],appreciable inhibition on cell growth
same,cell percentage in G0/G1,A2780 cells [4]; 2.5 μM,61.2 ± 0.9%
same,cell percentage in G2/M,A2780 cells [4]; 2.5 μM,13.4 ± 0.7%
same,cell percentage in S,A2780 cells [4]; 2.5 μM,25.5 ± 0.6%
same,cell percentage in G0/G1,A2780 cells [4]; 5 μM,63.7 ± 0.6%
same,cell percentage in G2/M,A2780 cells [4]; 5 μM,12.1 ± 0.6%
same,cell percentage in S,A2780 cells [4]; 5 μM,24.1 ± 1.1%
same,cell percentage in G0/G1,A2780 cells [4]; 10 μM,70.3 ± 1.2%
same,cell percentage in G2/M,A2780 cells [4]; 10 μM,9.8 ± 0.6%
same,cell percentage in S,A2780 cells [4]; 10 μM,19.8 ± 0.9%
same,cell percentage in G0/G1,A2780 cells [4]; 20 μM,71.6 ± 0.7%
same,cell percentage in G2/M,A2780 cells [4]; 20 μM,9.0 ± 0.8%
same,cell percentage in S,A2780 cells [4]; 20 μM,19.5 ± 0.4%
same,intracellular amount of ROS with respect to untreated cells (control),A2780 cells [5],more than 4 fold
same,modification in the electrophoretic migration of supercoiled plasmid DNA,[6],unable to induce any modification
same,effect on the relaxation ability of topoisomerase I,human topoisomerase I,unable to induce
same,effect on the relaxation ability of topoisomerase II,[7],unable to induce
"COc1ccc(/C=C\c2cc(OC)c(OC)c(OC)c2)cc1OP(=O)(O)O [CA-4P, Combretastatin A4P]",IC50,[8],95 ± 6 nM
same,IC50,[9],79 ± 3 nM
same,IC50,[10],2.9 nM
"O=C(Sc1cccc2cccnc12)c1ccccc1Cl [QCBT7, Quinolin-chlorobenzothiazoate]",IC50,HCT-116,600 nM
"COc1cc(NS(C)(=O)=O)ccc1Nc1c2ccccc2nc2ccccc12 [m-AMSA, Meta-amsacrine]",IC50,[11],39 ± 4 nM
same,IC50,[12],27 ± 5 nM
same,IC50,[13],19 ± 1 nM
